Among the data in ChEMBL document CHEMBL1275504, “Detection of macrolide resistance in Mycoplasma pneumoniae by real-time PCR and high-resolution melt analysis” (2008) are MIC values, retold here.

Holding throughout (type): functional
The test system of test [1] is Mycoplasmoides pneumoniae. In words: Antimicrobial activity against macrolide-resistant Mycoplasma pneumoniae isolate 1006 with A2603G mutation by agar dilution method. (In general: In agar dilution, organisms are placed on agar that contains the substance at set levels.)
Test [2] concerns Mycoplasmoides pneumoniae. Description: Antimicrobial activity against Mycoplasma pneumoniae isolate 19 by agar dilution method.
In test [3] the test system is Mycoplasmoides pneumoniae. In words: Antimicrobial activity against macrolide-resistant Mycoplasma pneumoniae isolate 2p with A2604G mutation by agar dilution method.
For test [4], the system named is Mycoplasmoides pneumoniae. Description: Antimicrobial activity against macrolide-resistant Mycoplasma pneumoniae isolate 11 with A2604G mutation by agar dilution method.
Test [5] concerns Mycoplasmoides pneumoniae. In words: Antimicrobial activity against macrolide-resistant Mycoplasma pneumoniae isolate 6 with A2604G mutation by agar dilution method.
For test [6], the system named is Mycoplasmoides pneumoniae. Description: Antimicrobial activity against Mycoplasma pneumoniae isolate M129 by agar dilution method.
Test [7] concerns Mycoplasmoides pneumoniae. Description: Antimicrobial activity against macrolide-resistant Mycoplasma pneumoniae isolate 685 with A2603G mutation by agar dilution method.
The subject of test [8] is Mycoplasmoides pneumoniae. In words: Antimicrobial activity against Mycoplasma pneumoniae isolate FH by agar dilution method.
For test [9], the system named is Mycoplasmoides pneumoniae. Description: Antimicrobial activity against Mycoplasma pneumoniae isolate 18 by agar dilution method.

A word on the MIC: it is the lowest concentration found to suppress growth. Low values mean greater potency, high ones weaker potency.

Each structure is given as a SMILES string. ≈ marks a conversion by molar mass, not a printed value.

Consider `CN(C)c1ccc(O)c2c1C[C@H]1C[C@H]3[C@H](N(C)C)C(O)=C(C(N)=O)C(=O)[C@@]3(O)C(O)=C1C2=O` [MINOCYCLINE], for which the MIC was found to be 0.125 µg/mL (≈ 0.273 µM) in test [1]; 0.125 µg/mL (≈ 0.273 µM) in test [2]; 0.25 µg/mL (≈ 0.546 µM) in [3]; 0.125 µg/mL (≈ 0.273 µM) in test [4]; 0.125 µg/mL (≈ 0.273 µM) in test [5]; 0.25 µg/mL (≈ 0.546 µM) in test [6]. For the same compound, the MIC in test [7] was found to be 0.125 µg/mL (≈ 0.273 µM); in [8], 0.25 µg/mL (≈ 0.546 µM); in test [9], 0.125 µg/mL (≈ 0.273 µM).
Turning to `CN(C)[C@@H]1C(O)=C(C(N)=O)C(=O)[C@@]2(O)C(O)=C3C(=O)c4c(O)cccc4[C@@](C)(O)[C@H]3C[C@@H]12` [TETRACYCLINE], the minimum inhibitory concentration (MIC) was determined as 0.125 µg/mL (≈ 0.281 µM) in [1]; 0.25 µg/mL (≈ 0.563 µM) in [2]; 0.25 µg/mL (≈ 0.563 µM) in test [3]; 0.25 µg/mL (≈ 0.563 µM) in test [4]; 0.25 µg/mL (≈ 0.563 µM) in [5]; 0.25 µg/mL (≈ 0.563 µM) in test [6]. For the same compound, the MIC in [7] is 0.25 µg/mL (≈ 0.563 µM); in [8], 0.25 µg/mL (≈ 0.563 µM); in [9], 0.125 µg/mL (≈ 0.281 µM).
`CC[C@H]1OC(=O)[C@H](C)[C@@H](O[C@H]2C[C@@](C)(OC)[C@@H](O)[C@H](C)O2)[C@H](C)[C@@H](O[C@@H]2O[C@H](C)C[C@H](N(C)C)[C@H]2O)[C@](C)(O)C[C@@H](C)C(=O)[C@H](C)[C@@H](O)[C@]1(C)O` [ERYTHROMYCIN]: the MIC was found to be 128 µg/mL (≈ 174 µM) in test [1]; 0.063 µg/mL (≈ 0.0858 µM) in [2]; 128 µg/mL (≈ 174 µM) in test [3]; 128 µg/mL (≈ 174 µM) in [4]; 128 µg/mL (≈ 174 µM) in test [5]; 0.063 µg/mL (≈ 0.0858 µM) in [6]. The figures for the minimal inhibitory concentration (MIC) in [7], in [8] and in [9] were 128 µg/mL (≈ 174 µM), 0.063 µg/mL (≈ 0.0858 µM) and 0.063 µg/mL (≈ 0.0858 µM), respectively.
